{"source": "patent US9593146B2", "about": "“CD44v6-derived peptides for treating metastasizing cancer” (AMCURE GMBH, priority 2012, dated 2017)", "key": {"[1]": {"tested_on": "VEGFR-2", "test": "VEGF-A165 induced activation of VEGFR-2 and Erk in endothelial cells", "format": "cell-based, human", "settings": "HUVEC, HAOEC and HCMEC", "method": "FIG. 13: Activation of VEGFR-2 and signal transduction induced by VEGF-A165 depends on CD44v6. Different ECs (HUVEC, HAOEC and HCMEC) were serum starved and incubated with several reagents (αCD44v6, v6 14mer and the controls IgG and ctrl pep). The cells were then induced with VEGF-A165 and lysed. The cell lysates were loaded on SDS-PAGE and subjected to Western blot analysis. Activation of the receptor tyrosine kinase VEGFR-2 and of its downstream target Erk was detected by means of antibodies that detect phosphorylated forms of VEGFR-2 and Erk. The loading control was performed with antibodies recognising total VEGFR-2 and Erk levels. The numbers indicate the fold induction as calculated with the computer programme ImageJ.\nIn order investigate if an isoform of CD44 is necessary for VEGFR-2 activation, the three tools inhibiting CD44v6 activity were used in an experiment where VEGFR-2 was activated by VEGF-A165. As expected all ECs responded to VEGF-A165 treatment with VEGFR-2 phosphorylation and signal transduction to Erk. […] Thus CD44v6 is also necessary for a functional VEGF-A165/VEGFR-2 system in these cells."}, "[2]": {"tested_on": "HUVEC", "test": "HUVEC spheroid sprouting assay", "format": "cell-based, human", "settings": "100 ng/ml peptide, VEGFs 40 ng/ml, 48 h", "method": "FIG. 19: Spheroids of HUVECs (750 cells) were generated in hanging drops. They were suspended in Endothelial Cell Growth Medium containing 1 mg/ml rat tail collagen I and 0.6% (wt/vol) methylcellulose and distributed in 48-well plates (30 spheroids/well). After solidification at 37° C. the mixture was overlaid with Endothelial Cell Growth Medium containing 100 ng/ml v6 peptide (human v6 14mer) or control peptide and VEGFs (40 ng/ml). Pictures were taken 48 h later and sprouting was quantified with the computer program ImageJ.\nClusters of HUVEC cells, so-called spheroids, were generated in hanging drops and embedded in a three-dimensional collagen matrix. They were overlaid with medium containing the blocking substances and the growth factors. Activated by the growth factors VEGF-A165 and VEGF-A121 the ECs started to grow out of the spheroids (FIG. 19). […] Sprouting of the ECs was quantified by analysing the total length of all sprouts originating from one spheroid."}}, "data": [{"sequence": "KEQWFGNRWHEGYR [human 14mer, human CD44v6 14mer peptide]", "values": [{"measurement": "VEGFR-2 activation and downstream signaling to Erk induced by VEGF-A165", "setting": "[1]", "result": "blocked VEGFR-2 activation and downstream signaling to Erk"}, {"measurement": "sprouting in response to VEGF-A (VEGF-A165, VEGF-A121)", "setting": "[2]", "result": "blocked completely"}]}]}
